Ki data for 39 molecules are collected here from US10479784B2, “Substituted pyrazin-2-amines as inhibitors of ATR kinase” (Vertex Pharmaceuticals Incorporated, priority 2008, dated 2019).

Each structure is given as a SMILES string.

Sequence of full-length ATR (Q13535 whole entry): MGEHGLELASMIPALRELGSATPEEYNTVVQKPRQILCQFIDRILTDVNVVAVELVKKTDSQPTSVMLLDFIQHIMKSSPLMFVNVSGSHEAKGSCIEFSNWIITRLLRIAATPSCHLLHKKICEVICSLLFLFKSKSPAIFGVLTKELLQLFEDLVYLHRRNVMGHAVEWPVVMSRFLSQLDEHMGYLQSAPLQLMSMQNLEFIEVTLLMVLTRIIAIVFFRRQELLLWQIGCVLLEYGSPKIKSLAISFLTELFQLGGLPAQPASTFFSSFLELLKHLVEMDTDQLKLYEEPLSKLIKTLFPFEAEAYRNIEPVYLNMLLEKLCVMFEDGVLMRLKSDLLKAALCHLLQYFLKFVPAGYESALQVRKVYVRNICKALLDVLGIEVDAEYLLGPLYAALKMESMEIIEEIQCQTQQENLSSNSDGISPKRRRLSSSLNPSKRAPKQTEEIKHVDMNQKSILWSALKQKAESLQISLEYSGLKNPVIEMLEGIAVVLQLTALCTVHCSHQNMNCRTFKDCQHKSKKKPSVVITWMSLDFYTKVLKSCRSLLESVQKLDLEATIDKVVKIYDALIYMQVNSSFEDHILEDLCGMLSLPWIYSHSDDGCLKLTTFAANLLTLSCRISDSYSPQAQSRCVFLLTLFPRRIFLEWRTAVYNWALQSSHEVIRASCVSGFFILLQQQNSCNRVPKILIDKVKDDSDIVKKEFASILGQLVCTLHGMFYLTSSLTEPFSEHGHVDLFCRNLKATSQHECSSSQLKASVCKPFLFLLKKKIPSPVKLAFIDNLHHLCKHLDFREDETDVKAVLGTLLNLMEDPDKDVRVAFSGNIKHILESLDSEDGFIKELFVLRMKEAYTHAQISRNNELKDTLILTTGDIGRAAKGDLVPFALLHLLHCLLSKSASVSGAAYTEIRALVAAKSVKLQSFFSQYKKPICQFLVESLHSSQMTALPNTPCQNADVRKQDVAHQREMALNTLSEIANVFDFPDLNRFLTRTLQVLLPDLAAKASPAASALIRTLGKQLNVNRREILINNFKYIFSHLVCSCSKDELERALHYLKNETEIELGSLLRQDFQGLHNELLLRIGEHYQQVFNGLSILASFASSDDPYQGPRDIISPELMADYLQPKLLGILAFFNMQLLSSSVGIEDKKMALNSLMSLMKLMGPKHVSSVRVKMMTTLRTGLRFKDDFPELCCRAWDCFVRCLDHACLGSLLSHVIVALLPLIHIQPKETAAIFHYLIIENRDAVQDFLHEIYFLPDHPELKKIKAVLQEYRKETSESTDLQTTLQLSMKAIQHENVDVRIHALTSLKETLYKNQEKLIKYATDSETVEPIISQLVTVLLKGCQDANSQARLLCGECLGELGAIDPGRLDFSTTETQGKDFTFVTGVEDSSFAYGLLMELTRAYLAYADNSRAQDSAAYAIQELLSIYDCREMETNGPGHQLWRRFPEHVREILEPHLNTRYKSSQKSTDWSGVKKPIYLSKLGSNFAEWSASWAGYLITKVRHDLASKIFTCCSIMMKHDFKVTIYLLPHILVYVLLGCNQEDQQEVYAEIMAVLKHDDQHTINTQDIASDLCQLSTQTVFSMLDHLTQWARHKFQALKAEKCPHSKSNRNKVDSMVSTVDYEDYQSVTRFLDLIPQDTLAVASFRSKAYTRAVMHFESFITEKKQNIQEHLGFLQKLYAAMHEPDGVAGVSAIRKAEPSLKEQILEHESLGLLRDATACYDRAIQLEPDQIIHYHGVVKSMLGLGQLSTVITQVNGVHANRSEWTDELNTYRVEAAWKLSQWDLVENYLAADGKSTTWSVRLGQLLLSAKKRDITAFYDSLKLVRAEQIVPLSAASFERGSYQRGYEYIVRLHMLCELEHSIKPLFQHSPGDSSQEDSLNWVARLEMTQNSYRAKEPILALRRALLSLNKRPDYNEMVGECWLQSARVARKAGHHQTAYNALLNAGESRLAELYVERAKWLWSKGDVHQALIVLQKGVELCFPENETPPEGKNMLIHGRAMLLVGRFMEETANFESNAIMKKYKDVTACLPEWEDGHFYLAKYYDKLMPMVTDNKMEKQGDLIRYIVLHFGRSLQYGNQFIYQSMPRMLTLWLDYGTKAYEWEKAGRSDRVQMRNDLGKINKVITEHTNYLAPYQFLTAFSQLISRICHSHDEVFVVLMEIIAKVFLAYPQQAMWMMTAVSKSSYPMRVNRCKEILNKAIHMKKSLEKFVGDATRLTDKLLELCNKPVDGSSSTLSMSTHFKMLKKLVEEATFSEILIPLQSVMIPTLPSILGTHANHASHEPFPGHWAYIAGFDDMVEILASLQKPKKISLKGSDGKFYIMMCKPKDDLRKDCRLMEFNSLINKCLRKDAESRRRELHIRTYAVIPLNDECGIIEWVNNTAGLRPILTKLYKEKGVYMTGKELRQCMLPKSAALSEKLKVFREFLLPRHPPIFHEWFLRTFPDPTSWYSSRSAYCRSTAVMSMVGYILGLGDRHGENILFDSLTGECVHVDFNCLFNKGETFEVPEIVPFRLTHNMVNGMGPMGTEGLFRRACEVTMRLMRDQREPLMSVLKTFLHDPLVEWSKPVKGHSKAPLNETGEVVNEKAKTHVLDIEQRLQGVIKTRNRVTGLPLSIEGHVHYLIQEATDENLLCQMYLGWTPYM

In the assay the target is full-length ATR (Homo sapiens (Human), UniProt Q13535). Briefly: ATR Inhibition Assay (radioactive-phosphate incorporation). The settings on record: read-out: ATR Ki. In kind it is biochemical. In a few lines:
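Ki(app) was derived by non-linear regression of background-corrected initial rates of 33P incorporation into an 800 μM target peptide, read by phosphocellulose filter scintillation counting. Reaction conditions: 5 nM full-length ATR, 10 μM [γ-33P]ATP, pH 7.5 Tris buffer with MgCl2 and DTT, 25 °C, 10-min preincubation, 24 h run.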
As for `Cc1ncccc1NC(=O)c1nc(-c2ccc(S(C)(=O)=O)cc2)cnc1N` [VII-5], the Ki is 10 to 100 nM.

Take `Nc1ncc(-c2ccc(O)nc2)nc1C(=O)Nc1ccccc1` [Compound I-32, 3-amino-6-(6-hydroxypyridin-3-yl)-N-phenylpyrazine-2-carboxamide]: the Ki is 10 to 100 nM.

For the molecule `CC(C)c1ccccc1-c1cnc(N)c(-c2nnc(-c3ccccc3)o2)n1` [IA-56], the Ki fell in the range of 100 to 5000 nM.

In the case of `CC(C)S(=O)(=O)c1ccc(-c2cnc(N)c(-c3nnc(C(=O)N4CCC(N)C4)o3)n2)cc1` (stereo not drawn) [IA-133, [5-[3-amino-6-(4-isopropylsulfonylphenyl)pyrazin-2-yl]-1,3,4-oxadiazol-2-yl]-(3-aminopyrrolidin-1-yl)methanone], the Ki fell in the range of 100 to 5000 nM.

`NC(=O)C1CCN(C(=O)c2ccc(-c3cnc(N)c(C(=O)Nc4ccccc4)n3)cc2)CC1` [Compound I-77, 3-amino-6-(4-(4-carbamoylpiperidine-1-carbonyl)phenyl)-N-phenylpyrazine-2-carboxamide]: the Ki is 10 to 100 nM.

On to `CC(C)S(=O)(=O)c1ccc(-c2cnc(N)c(-c3nnc(-c4ccc(CNCC(F)F)s4)o3)n2)cc1` [IA-236, 3-[5-[5-[(2,2-difluoroethylamino)methyl]-2-thienyl]-1,3,4-oxadiazol-2-yl]-5-(4-isopropylsulfonylphenyl)pyrazin-2-amine], for which the Ki lay in the range of 10 to 100 nM.

On to `COc1ccc(-c2cnc(N)c(C(=O)Nc3ccccc3)n2)cc1` [Compound I-1, 3-amino-6-(4-methoxyphenyl)-N-phenylpyrazine-2-carboxamide], for which the Ki lay in the range of 100 to 5000 nM.

Take `CS(=O)(=O)Nc1ccc(-c2cnc(N)c(C(=O)Nc3ccccc3)n2)cc1` [Compound I-5, 3-amino-6-(4-(methylsulfonamido)phenyl)-N-phenylpyrazine-2-carboxamide]: the Ki fell in the range of 10 to 100 nM.

Regarding `CC(C)S(=O)(=O)c1ccc(-c2cnc(N)c(-c3nnc(-c4ccc(CNCC(C)(C)O)cc4F)o3)n2)cc1` [IA-348, 1-(4-(5-(3-amino-6-(4-(isopropylsulfonyl)phenyl)pyrazin-2-yl)-1,3,4-oxadiazol-2-yl)-3-fluorobenzylamino)-2-methylpropan-2-ol], the Ki was not above 10 nM.

On to `CC(C)(C)OC(=O)NCC[S+]([O-])c1ccccc1-c1cnc(N)c(-c2nnc(-c3ccccc3)o2)n1` (stereo not drawn) [IA-164, tert-butyl N-[2-[2-[5-amino-6-(5-phenyl-1,3,4-oxadiazol-2-yl)pyrazin-2-yl]phenyl]sulfinylethyl]carbamate], for which the Ki lay in the range of 100 to 5000 nM.

In the case of `CNCc1ccc(-c2nnc(-c3nc(-c4ccc(S(=O)(=O)C5COC5)cc4)cnc3N)o2)cc1` [IA-308, 3-[5-[4-(methylaminomethyl)phenyl]-1,3,4-oxadiazol-2-yl]-5-[4-(oxetan-3-ylsulfonyl)phenyl]pyrazin-2-amine], the Ki is not above 10 nM.

For `CC(C)S(=O)(=O)c1ccc(-c2cnc(N)c(-c3cc(-c4ccc(CNCCO)cc4)no3)n2)cc1` [IIA-9, 2-(4-(5-(3-amino-6-(4-(isopropylsulfonyl)phenyl)pyrazin-2-yl)isoxazol-3-yl)benzylamino)ethanol], the Ki is not above 10 nM.

Take `Nc1ncc(-c2ccc(C(=O)N3CCCNCC3)cc2)nc1C(=O)Nc1nc2ccccc2s1` [Compound V-9]: the Ki lay within 10 to 100 nM.

For `COc1ccccc1NC(=O)c1nc(-c2cccc(C(N)=O)c2)cnc1N` [Compound I-27, 3-amino-6-(3-carbamoylphenyl)-N-(2-methoxyphenyl)pyrazine-2-carboxamide], the Ki is 10 to 100 nM.

On to `Nc1ncc(-c2cccc(C(=O)O)c2)nc1C(=O)Nc1ccccc1` [Compound I-8, 3-(5-amino-6-(phenylcarbamoyl)pyrazin-2-yl)benzoic acid], for which the Ki lay within 100 to 5000 nM.

For `Nc1ncc(-c2ccc(N3CCNCC3)nc2)nc1-c1nnc(-c2ccccc2)o1` [IA-186, 3-(5-phenyl-1,3,4-oxadiazol-2-yl)-5-(6-piperazin-1-yl-3-pyridyl)pyrazin-2-amine], the Ki lay in the range of 100 to 5000 nM.

For `CC(C)S(=O)(=O)c1ccc(-c2cnc(N)c(-c3nnc(-c4ccccc4)o3)n2)c(C#N)c1` [IA-132, 2-[5-amino-6-(5-phenyl-1,3,4-oxadiazol-2-yl)pyrazin-2-yl]-5-isopropylsulfonyl-benzonitrile], the Ki is not above 10 nM.

`CC(C)(C)OC(=O)N1CCCN(C(=O)c2ccc(-c3cnc(N)c(-c4nnc(-c5ccccc5)o4)n3)cc2)CC1` [IA-28]: the Ki is not above 10 nM.

`C=Cc1ccccc1-c1cnc(N)c(-c2nnc(-c3ccccc3)o2)n1` [IA-253, 3-(5-phenyl-1,3,4-oxadiazol-2-yl)-5-(2-vinylphenyl)pyrazin-2-amine]: the Ki was in the range of 100 to 5000 nM.

With `Cc1csc(-c2nnc(-c3nc(-c4ccc(C(=O)N(C)C)cc4)cnc3N)o2)c1` [IA-246, 4-[5-amino-6-[5-(4-methyl-2-thienyl)-1,3,4-oxadiazol-2-yl]pyrazin-2-yl]-N,N-dimethyl-benzamide], the Ki was not above 10 nM.

As for `CC(C)S(=O)(=O)c1ccc(-c2cnc(N)c(-c3nnc(-c4ccc(C5CCCN5)cc4)o3)n2)cc1` (stereo not drawn) [IA-102, 5-(4-isopropylsulfonylphenyl)-3-[5-(4-pyrrolidin-2-ylphenyl)-1,3,4-oxadiazol-2-yl]pyrazin-2-amine], the Ki is not above 10 nM.

Take `Nc1ncc(-c2ccccc2C(F)(F)F)nc1C(=O)Nc1ccccc1` [Compound I-6, 3-amino-N-phenyl-6-(2-(trifluoromethyl)phenyl)pyrazine-2-carboxamide]: the Ki is 100 to 5000 nM.

For `Nc1ncc(-c2cccnc2)nc1C(=O)Nc1ccc(F)cc1` [Compound I-94, 3-amino-N-(4-fluorophenyl)-6-(pyridin-3-yl)pyrazine-2-carboxamide], the Ki is 100 to 5000 nM.

For the molecule `CNCc1ccc(-c2nnc(-c3nc(-c4ccc(S(=O)(=O)C(C)C)cc4)cnc3N)o2)c(F)c1` [IA-130, 3-[5-[2-fluoro-4-(methylaminomethyl)phenyl]-1,3,4-oxadiazol-2-yl]-5-(4-isopropylsulfonylphenyl)pyrazin-2-amine], the Ki was not above 10 nM.

In the case of `Nc1ncc(-c2ccnc(N3CCNCC3)c2)nc1-c1nnc(-c2ccccc2)o1` [IA-271, 3-(5-phenyl-1,3,4-oxadiazol-2-yl)-5-(2-piperazin-1-yl-4-pyridyl)pyrazin-2-amine], the Ki was in the range of 100 to 5000 nM.

Regarding `CC(C)S(=O)(=O)c1ccc(-c2cnc(N)c(-c3nnc(C(=O)N4CCCC(N)C4)o3)n2)cc1` (stereo not drawn) [IA-98, [5-[3-amino-6-(4-isopropylsulfonylphenyl)pyrazin-2-yl]-1,3,4-oxadiazol-2-yl]-(3-amino-1-piperidyl)methanone], the inhibition constant Ki was in the range of 10 to 100 nM.

On to `CC(=O)NCc1ccc(-c2cnc(N)c(-c3nc4ccccc4[nH]3)n2)cc1` [Compound I-130, N-(4-(5-amino-6-(1H-benzo[d]imidazol-2-yl)pyrazin-2-yl)benzyl) ethanamide], for which the Ki is 100 to 5000 nM.

As to `Nc1ncc(-c2cccc(C(=O)N3CCCC3)c2)nc1C(=O)Nc1ccccc1` [Compound I-63, 3-amino-N-phenyl-6-(3-(pyrrolidine-1-carbonyl)phenyl)pyrazine-2-carboxamide], the inhibitory constant (Ki) lay within 100 to 5000 nM.

For `CS(=O)(=O)c1ccc(-c2cnc(N)c(-c3nc4ccccc4[nH]3)n2)cc1` [Compound I-123, 3-(1H-benzo[d]imidazol-2-yl)-5-(4-(methylsulfonyl)phenyl)pyrazin-2-amine], the Ki fell in the range of 10 to 100 nM.

Take `CNCc1ccc(-c2nnc(-c3nc(-c4ccc(S(=O)(=O)C(C)C)c(Cl)c4)cnc3N)o2)cc1` [IA-305, 5-(3-chloro-4-isopropylsulfonyl-phenyl)-3-[5-[4-(methylaminomethyl)phenyl]-1,3,4-oxadiazol-2-yl]pyrazin-2-amine]: the Ki was not above 10 nM.

On to `CN(C)C(=O)c1ccc(-c2cnc(N)c(-c3nnc(NCCc4ccccc4)o3)n2)cc1` [IA-156, 4-[5-amino-6-[5-(phenethylamino)-1,3,4-oxadiazol-2-yl]pyrazin-2-yl]-N,N-dimethyl-benzamide], for which the Ki lay within 100 to 5000 nM.

Take `CNCc1ccc(-c2nnc(-c3nc(-c4ccc(S(=O)(=O)C(C)CCOC)cc4)cnc3N)o2)cc1` (stereo not drawn) [IA-330, 5-[4-(3-methoxy-1-methyl-propyl)sulfonylphenyl]-3-[5-[4-(methylaminomethyl)phenyl]-1,3,4-oxadiazol-2-yl]pyrazin-2-amine]: the Ki was not above 10 nM.

For `CC(=O)c1cccc(-c2cnc(N)c(C(=O)Nc3ccccc3)n2)c1` [Compound I-22, 6-(3-acetylphenyl)-3-amino-N-phenylpyrazine-2-carboxamide], the Ki lay within 10 to 100 nM.

Turning to `CC(C)S(=O)(=O)c1ccc(-c2cnc(N)c(-c3nnc(N4CCC(CN)CC4)o3)n2)cc1` [IA-138, 3-[5-[4-(aminomethyl)-1-piperidyl]-1,3,4-oxadiazol-2-yl]-5-(4-isopropylsulfonylphenyl)pyrazin-2-amine], the inhibitory constant (Ki) lay in the range of 10 to 100 nM.

As to `COCCNCc1ccc(-c2nnc(-c3nc(-c4ccc(S(=O)(=O)C(C)C)cc4)cnc3N)o2)cc1` [IA-119, 5-(4-isopropylsulfonylphenyl)-3-[5-[4-[(2-methoxyethylamino)methyl]phenyl]-1,3,4-oxadiazol-2-yl]pyrazin-2-amine], the Ki was not above 10 nM.

With `NC(=O)c1ccc(NC(=O)c2nc(-c3cccnc3)cnc2N)cc1` [Compound I-92, 3-amino-N-(4-carbamoylphenyl)-6-(pyridin-3-yl)pyrazine-2-carboxamide], the inhibition constant Ki is 100 to 5000 nM.

Turning to `CC(C)S(=O)(=O)c1ccc(-c2cnc(N)c(-c3nnc(-c4cccc(C5CCCN5)c4)o3)n2)cc1` (stereo not drawn) [IA-84, 5-(4-isopropylsulfonylphenyl)-3-[5-(3-pyrrolidin-2-ylphenyl)-1,3,4-oxadiazol-2-yl]pyrazin-2-amine], the Ki is not above 10 nM.

As for `CC(C)S(=O)(=O)c1ccc(-c2cnc(N)c(-c3nnc(-c4cccc([C@H](C)N)c4)o3)n2)cc1` [IA-123, 3-[5-[3-[(1S)-1-aminoethyl]phenyl]-1,3,4-oxadiazol-2-yl]-5-(4-isopropylsulfonylphenyl)pyrazin-2-amine], the Ki was not above 10 nM.

For `Nc1ncc(-c2ccnc(N3CCNCC3)c2)nc1-c1nc2ccccc2[nH]1` [Compound I-136, 3-(1H-benzo[d]imidazol-2-yl)-5-(2-(piperazin-1-yl)pyridin-4-yl)pyrazin-2-amine], the Ki is 100 to 5000 nM.

In general, Ki refers to a measure of affinity in units of concentration, obtained from inhibition or displacement.
